The compounds below were run against T1, cAMP and cAMP-inhibited cGMP 3',5'-cyclic phosphodiesterase 10A (Rattus norvegicus, UniProt Q9QYJ6) (assay: Enzyme Inhibition Assay: Enzyme activity: An IMAP TR-FRET assay was used to analyze the enzyme activity (Molecular Devices Corp., Sunnyvale, Calif).).
T1 sequence (Q9QYJ6 whole entry): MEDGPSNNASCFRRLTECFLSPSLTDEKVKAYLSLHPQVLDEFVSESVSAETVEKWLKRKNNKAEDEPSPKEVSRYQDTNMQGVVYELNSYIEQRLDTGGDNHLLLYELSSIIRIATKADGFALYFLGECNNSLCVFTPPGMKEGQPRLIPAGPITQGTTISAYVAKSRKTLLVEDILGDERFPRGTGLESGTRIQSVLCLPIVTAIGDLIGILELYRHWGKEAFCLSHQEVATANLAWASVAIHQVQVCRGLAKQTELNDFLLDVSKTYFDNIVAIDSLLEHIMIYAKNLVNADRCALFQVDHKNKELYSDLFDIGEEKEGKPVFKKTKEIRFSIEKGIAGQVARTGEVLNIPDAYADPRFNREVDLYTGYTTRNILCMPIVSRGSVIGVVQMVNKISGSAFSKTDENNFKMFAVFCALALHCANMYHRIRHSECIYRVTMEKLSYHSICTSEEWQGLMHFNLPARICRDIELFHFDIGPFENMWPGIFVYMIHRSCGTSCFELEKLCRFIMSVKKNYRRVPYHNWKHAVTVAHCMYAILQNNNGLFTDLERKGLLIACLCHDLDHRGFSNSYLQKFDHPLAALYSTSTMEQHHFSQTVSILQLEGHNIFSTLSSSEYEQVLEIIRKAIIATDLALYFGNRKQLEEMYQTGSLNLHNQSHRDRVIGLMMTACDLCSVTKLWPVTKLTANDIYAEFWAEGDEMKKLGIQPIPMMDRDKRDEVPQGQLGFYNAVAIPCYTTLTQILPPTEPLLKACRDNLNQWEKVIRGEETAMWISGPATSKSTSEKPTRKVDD

Row | Compound | IC50
1 | CC(=O)N1CCC(c2nccnc2OC2CN(c3ccc4ccccc4n3)C2)CC1 | 8.39 nM
2 | O=C(c1ccc2ccccc2n1)N1CCC(Oc2nccnc2N2CCOCC2)CC1 | 1080 nM
3 | Cc1ccnc(C(=O)N2CCC(Oc3ncccc3C3CCOCC3)CC2)c1 | 118 nM
4 | Cc1cccnc1C(=O)N1CCC(Oc2ncccc2C2CCOCC2)CC1 | 1000 nM
5 | O=C(c1nc2ccccc2s1)N1CCC(Oc2ncccc2C2CCOCC2)CC1 | 324 nM
6 | O=C(c1cc2ccccc2cn1)N1CCC(Oc2ncccc2C2CCOCC2)CC1 | 126 nM
7 | O=C(c1cc(Cl)ccn1)N1CCC(Oc2ncccc2C2CCOCC2)CC1 | 8890 nM
8 | O=C(c1nc2ccccc2[nH]1)N1CC[C@H](Oc2ncccc2C2=CCOCC2)C1 | 715 nM
9 | O=C(c1nc2ccccc2[nH]1)N1CC[C@@H](Oc2ncccc2C2=CCOCC2)C1 | 767 nM
10 | O=C(c1nc2ccccc2[nH]1)N1CC(Oc2nccnc2C2CCOCC2)C1 | 884 nM
11 | O=C(c1nc2ccccc2[nH]1)N1CCC(Oc2ncccc2C2CCOCC2)CC1 | 116 nM
12 | CC(=O)N1CCC(c2cccnc2OC2CN(C(=O)c3nc4ccccc4[nH]3)C2)CC1 | 102 nM
13 | CC(=O)N1CC=C(c2nccnc2OC2CN(C(=O)c3ccc(C)cn3)C2)CC1 | 1030 nM
14 | CC(=O)N1CCCC(c2cccnc2OC2CN(C(=O)c3ccc(C)nc3)C2)C1 (stereo not given) | 8340 nM
15 | CC(=O)N1CCCC(c2cccnc2OC2CN(C(=O)CC(C)(C)C)C2)C1 (stereo not given) | 41800 nM
16 | CC(=O)N1CCC(c2nccnc2OC2CN(C(=O)c3ccc[nH]3)C2)CC1 | 139 nM
17 | O=C(c1nc2ccccc2[nH]1)N1CC(Oc2cnccn2)C1 | 12300 nM
18 | O=C(c1nc2ccccc2[nH]1)N1CC(Oc2nc3ccccc3nc2C2CCOCC2)C1 | 786 nM
19 | O=C(c1ccc2ccccc2n1)N1CCC(Oc2ncccc2C2CCOCC2)CC1 | 809 nM
20 | O=C(c1ccc2ccccc2n1)N1CCC(Oc2nccnc2C2CCOCC2)CC1 | 994 nM
21 | O=C(c1nccc2ccccc12)N1CCC(Oc2nccnc2C2CCOCC2)CC1 | 7320 nM
22 | Cc1cc(-c2nccnc2OC2CCN(C(=O)c3ccc4ccccc4n3)CC2)ccn1 | 2660 nM

Row | Compound | IC50
23 | Cc1cc(-c2nccnc2OC2CCN(C(=O)c3nccc4ccccc34)CC2)ccn1 | 3590 nM
24 | Cc1cc(-c2cccnc2OC2CCN(C(=O)c3ccc4ccccc4n3)CC2)ccn1 | 1230 nM
25 | Cc1cc(-c2cccnc2OC2CCN(C(=O)c3nccc4ccccc34)CC2)ccn1 | 2130 nM
26 | O=C(c1nccc2ccccc12)N1CCC(Oc2ncccc2N2CCOCC2)CC1 | 11100 nM
27 | O=C(c1nccc2ccccc12)N1CCC(Oc2nccnc2N2CCOCC2)CC1 | 5400 nM
28 | O=C(c1nc2ccccc2[nH]1)N1CC[C@@H](Oc2ncccc2C2CCOCC2)C1 | 1820 nM
29 | O=C(c1nc2ccccc2[nH]1)N1CC[C@H](Oc2ncccc2C2CCOCC2)C1 | 409 nM
30 | c1cnc(OC2CN(c3ccc4ccccc4n3)C2)c(C2CCOCC2)c1 | 1800 nM
31 | c1ccc2cc(N3CC(Oc4nccnc4C4CCOCC4)C3)ncc2c1 | 4960 nM
32 | c1ccc2c(N3CC(Oc4nccnc4C4CCOCC4)C3)nccc2c1 | 4410 nM
33 | c1ccc2nc(N3CC(Oc4nccnc4C4CCOCC4)C3)ccc2c1 | 331 nM
34 | c1ccc(N2CCC(Oc3nccnc3C3CCOCC3)CC2)nc1 | 2390 nM
35 | Cc1ccnc(N2CCC(Oc3nccnc3C3CCOCC3)CC2)c1 | 1330 nM
36 | Cc1cccc(N2CCC(Oc3nccnc3C3CCOCC3)CC2)n1 | 1440 nM
37 | Cc1cccnc1N1CCC(Oc2ncccc2C2CCOCC2)CC1 | 568 nM
38 | Cc1ccnc(N2CCC(Oc3ncccc3C3CCOCC3)CC2)c1 | 236 nM
39 | Cc1ccc(N2CCC(Oc3ncccc3C3CCOCC3)CC2)nc1 | 262 nM
40 | Cc1cccc(N2CCC(Oc3ncccc3C3CCOCC3)CC2)n1 | 1670 nM
41 | c1ccc2c(N3CCC(Oc4nccnc4C4CCOCC4)CC3)nccc2c1 | 2810 nM
42 | c1ccc2cc(N3CCC(Oc4nccnc4C4CCOCC4)CC3)ncc2c1 | 235 nM
43 | c1ccc2nc(N3CCC(Oc4nccnc4C4CCOCC4)CC3)ccc2c1 | 69.3 nM
44 | c1ccc2[nH]c(N3CCC(Oc4nccnc4C4CCOCC4)CC3)nc2c1 | 229 nM

Row | Compound | IC50
45 | c1cnc(OC2CCN(c3nccc4ccccc34)CC2)c(C2CCOCC2)c1 | 1810 nM
46 | c1cnc(OC2CCN(c3cc4ccccc4cn3)CC2)c(C2CCOCC2)c1 | 353 nM
47 | c1cnc(OC2CCN(c3nc4ccccc4[nH]3)CC2)c(C2CCOCC2)c1 | 199 nM
48 | c1cnc(O[C@H]2CCN(c3ccc4ccccc4n3)C2)c(C2CCOCC2)c1 | 340 nM
49 | c1cnc(O[C@H]2CCN(c3cc4ccccc4cn3)C2)c(C2CCOCC2)c1 | 2970 nM
50 | c1cnc(O[C@H]2CCN(c3nccc4ccccc34)C2)c(C2CCOCC2)c1 | 730 nM
51 | c1cnc(O[C@H]2CCN(c3nc4ccccc4[nH]3)C2)c(C2CCOCC2)c1 | 2470 nM
52 | c1cnc(O[C@@H]2CCN(c3ccc4ccccc4n3)C2)c(C2CCOCC2)c1 | 384 nM
53 | c1cnc(O[C@@H]2CCN(c3cc4ccccc4cn3)C2)c(C2CCOCC2)c1 | 1830 nM
54 | c1cnc(O[C@@H]2CCN(c3nccc4ccccc34)C2)c(C2CCOCC2)c1 | 981 nM
55 | c1cnc(O[C@@H]2CCN(c3nc4ccccc4[nH]3)C2)c(C2CCOCC2)c1 | 3590 nM
56 | c1ccc2nc(N3CC[C@H](Oc4nccnc4C4CCOCC4)C3)ccc2c1 | 447 nM
57 | c1ccc2cc(N3CC[C@H](Oc4nccnc4C4CCOCC4)C3)ncc2c1 | 1360 nM
58 | c1ccc2c(N3CC[C@H](Oc4nccnc4C4CCOCC4)C3)nccc2c1 | 819 nM
59 | c1ccc2nc(N3CC[C@@H](Oc4nccnc4C4CCOCC4)C3)ccc2c1 | 109 nM
60 | c1ccc2c(N3CC[C@@H](Oc4nccnc4C4CCOCC4)C3)nccc2c1 | 4430 nM
61 | c1ccc2[nH]c(N3CC[C@@H](Oc4nccnc4C4CCOCC4)C3)nc2c1 | 306 nM
62 | CC(=O)N1CC=C(c2cccnc2OC2CN(c3nc4ccccc4s3)C2)CC1 | 346 nM
63 | CC(=O)N1CCC(c2nccnc2OC2CN(c3nc4ccccc4[nH]3)C2)CC1 | 690 nM
64 | CC(=O)N1CC=C(c2nccnc2OC2CN(c3nc4ccccc4s3)C2)CC1 | 63.1 nM
65 | O=[N+]([O-])c1ccc(N2CCC(Oc3ncccc3C3CCOCC3)CC2)nc1 | 1400 nM
66 | Nc1ccc(N2CCC(Oc3ncccc3C3CCOCC3)CC2)nc1 | 1700 nM

Row | Compound | IC50
67 | Clc1ccc(N2CCC(Oc3ncccc3C3CCOCC3)CC2)nc1 | 1410 nM
68 | Brc1ccc(N2CCC(Oc3ncccc3C3CCOCC3)CC2)nc1 | 138 nM
69 | OCc1ccc(N2CCC(Oc3ncccc3C3CCOCC3)CC2)nc1 | 1170 nM
70 | O=Cc1ccc(N2CCC(Oc3ncccc3C3CCOCC3)CC2)nc1 | 1480 nM
71 | Fc1ccc(N2CCC(Oc3ncccc3C3CCOCC3)CC2)nc1 | 2960 nM
72 | N#Cc1ccc(N2CCC(Oc3ncccc3C3CCOCC3)CC2)nc1 | 828 nM
73 | FC(F)(F)c1ccc(N2CCC(Oc3ncccc3C3CCOCC3)CC2)nc1 | 2200 nM
74 | CC(=O)c1ccc(N2CCC(Oc3ncccc3C3CCOCC3)CC2)nc1 | 384 nM
75 | Cc1ccc2ccc(N3CCC(Oc4ncccc4C4CCOCC4)CC3)nc2c1 | 266 nM
76 | COC(=O)c1ccc(N2CCC(Oc3ncccc3C3CCOCC3)CC2)nc1 | 198 nM
77 | Cc1ccc2ccc(N3CCC(Oc4nccnc4C4CCOCC4)CC3)nc2c1 | 515 nM
78 | Cc1cccc2ccc(N3CCC(Oc4nccnc4C4CCOCC4)CC3)nc12 | 7840 nM
79 | Cc1cc(N2CCC(Oc3nccnc3C3CCOCC3)CC2)nc2ccccc12 | 125 nM
80 | Cc1ccc2nc(N3CCC(Oc4nccnc4C4CCOCC4)CC3)ccc2c1 | 276 nM
81 | c1ccc2[nH]c(N3CC[C@H](Oc4nccnc4C4CCOCC4)C3)nc2c1 | 3930 nM
82 | Cc1ccc2nc(N3CCC(Oc4ncccc4C4CCOCC4)CC3)ccc2c1 | 472 nM
83 | Cc1cc(N2CCC(Oc3ncccc3C3CCOCC3)CC2)nc2ccccc12 | 101 nM
84 | Brc1cccnc1OC1CN(c2ccncn2)C1 | 57700 nM
85 | Brc1cccnc1OC1CN(c2cccnn2)C1 | 25.3 nM

— ChEMBL document CHEMBL3639166, “Heteroaryloxyheterocyclyl compounds as PDE10 inhibitors” (2013)
